The nature of data set [1]: Molar enthalpy of transition or fusion. To be noted: DSC.
For data set [2] the following is noted: for Normal melting temperature: Crystal 1.

Molecules are shown by their SMILES. ± gives the expanded uncertainty stated by the source.

Regarding `CC[N+]1(C)CCCCC1.O=S(=O)([N-]S(=O)(=O)C(F)(F)F)C(F)(F)F`, the figures for the “Molar enthalpy of transition or fusion” value in data set [1] (Crystal 1), in data set [1] (Crystal 2) and in data set [1] (Crystal 3) were 16.6 ± 0.52 kJ/mol, 3.53 ± 0.19 kJ/mol and 2.45 ± 0.17 kJ/mol, respectively. Further, the Normal melting temperature is 84.89 ± 0.5 °C in data set [2] (DTA) and 84.56 ± 0.5 °C in data set [2] (visual observation). The Triple point temperature amounted to 289.6 ± 0.5 K in data set [2] (Crystal 2, visual observation) and 215.8 ± 0.5 K in data set [2] (Crystal 3, DTA).
Regarding `CCCC[N+]1(C)CCCCC1.N#C[S-]` [1-butyl-1-methylpiperidinium thiocyanate], the “Molar enthalpy of transition or fusion” value in data set [1] (Crystal 1) was found to be 3.02 ± 0.2 kJ/mol; in data set [1] (Crystal 2), 15.3 ± 0.49 kJ/mol. Also, the Normal melting temperature in data set [2] (DTA) was determined as 31.17 ± 0.5 °C. Further, the Triple point temperature in data set [2] (Crystal 2, DTA) turned out to be 274.2 ± 0.5 K. The Glass transition temperature in data set [2] (Glass, DTA) was -71.8 ± 10 °C.
`CCCCCCCCCCO` [decan-1-ol]: the Normal melting temperature in data set [2] (visual observation) was 7.00 ± 1.1 °C.
As for `CCCCCCCCCCCCO` [dodecan-1-ol], in data set [2] (visual observation), the Normal melting temperature turned out to be 24.00 ± 1.1 °C.
In the case of `CCCCCCCO` [heptan-1-ol], the Normal melting temperature in data set [2] (visual observation) is -34.60 ± 1.1 °C.
The same measure, in the same setting: the result for `CCCCCCO` [hexan-1-ol] reads -45.00 ± 1.1 °C.
The same measure, in the same setting: the result for `CCCCCCCCO` [octan-1-ol] reads -16.00 ± 1.1 °C.
The same measure, in the same setting: the result for `O` [water] reads 0.00 ± 1.1 °C.

These data come from the NIST ThermoML archive (doi:10.1016/j.fluid.2010.12.008).
